1 compound from US11142515B2, “Pyrazolyl-ureas as kinase inhibitors” (RESPIVERT LIMITED, priority 2014, dated 2021) can be followed below.

The target in experiment [1] is T1, p38 MAPKα isoform (MAPK14) (Homo sapiens, UniProt Q16539).
T1 construct: purchased Life Technologies
As to the kind of experiment: p38 MAPKα enzyme inhibition (Z-LYTE FRET). It counts as biochemical. As to conditions: Table 2A; read-out: IC50 Values for Enzyme Inhibition p38 MAPKα. The method in brief: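 Recombinant human MAPK14 (40 ng/mL stock) was preincubated 2 h at RT with compound (stock dilutions 0.0012-40 μg/mL). The Z-LYTE FRET read-out used a MAPKAP-K2-derived peptide, and protease development for 1 h cleaved only non-phosphorylated peptide. Phosphorylation was calculated from the coumarin/fluorescein emission ratio.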

The test system of experiment [2] is TNFα release in d-U937 cells. As to the kind of experiment: LPS-induced TNFα release in d-U937 cells. Also: relative to 10 µg/mL BIRB-796. It counts as cell-based. The following applies: Homo sapiens, dU937; read-out: LPS Induced Release TNFα REC50 (dU937). Here is the method:
(§1) U937 cells, a human monocytic cell line, were differentiated into macrophage-type cells by incubation with PMA (100-200 ng/mL) for 48 to 72 h. Cells were pre-incubated with final […] concentrations of test compound for 2 h and were then stimulated with LPS (0.1 μg/mL; from E. coli: O111:B4, Sigma) for 4 h. The supernatant was collected for determination of TNFα and IL-8 concentrations by sandwich ELISA (Duo-set, R&D systems). […] The relative 50% effective concentration (REC50) was determined from the resultant concentration-response curve. The inhibition of IL-8 production was calculated at each concentration of test compound by comparison with vehicle control.

The test system of a further experiment is CXCL1 (KC) in BALF. As to the kind of experiment: Cigarette smoke model: CXCL1 (KC) in BALF. It counts as in vivo, A/J mice. As to conditions: mice; for CXCL1 in BALF / CXCL1 in BALF, % inhibition: tobacco smoke. Here is the method:
A/J mice (males, 5 weeks old) were exposed to cigarette smoke (4% cigarette smoke, diluted with air) for 30 min/day for 11 days using a Tobacco Smoke Inhalation Experiment System for small animals (Model SIS-CS; Sibata Scientific Technology, Tokyo, Japan). Test substances were administered intra-nasally (35 μL of solution in 10% DMSO/PBS) once daily for 3 days after the final cigarette smoke exposure. At 12 h after the last […], each of the animals was anesthetized, the trachea cannulated and bronchoalveolar lavage fluid (BALF) was collected. The numbers of alveolar macrophages and neutrophils were determined by FACS analysis (EPICS® ALTRA II, Beckman Coulter, Inc., Fullerton, Calif., USA) using anti-mouse MOMA2 antibody (macrophage) or anti-mouse 7/4 antibody (neutrophil). BALF was centrifuged and the supernatant was collected. The level of keratinocyte chemoattractant (KC; CXCL1) in BALF was quantitated using a Quantikine® mouse KC ELISA kit (R&D systems, Inc., Minneapolis, Minn., USA).

The test system of experiment [3] is IL-8 release in d-U937 cells. Nature of the experiment: LPS-induced IL-8 release in d-U937 cells. The following applies: Homo sapiens, dU937, LPS 0.1 μg/mL 4 h. It counts as cell-based. Here is the method:
as §1

In experiment [4] the test system is neutrophil accumulation in BALF. Nature of the experiment: LPS-induced neutrophil accumulation in mice. As to conditions: mice; for Neutrophil numbers in BALF / Neutrophil numbers in BALF, % inhibition: 0.2 mg/mL, LPS. It counts as in vivo, Balb/c mice. Here is the method: Non-fasted Balb/c mice were […] by the intra tracheal route with either vehicle, or the test substance at the indicated times (within the range 2-8 h) before stimulation of the inflammatory response by application of an LPS challenge. At T=0, mice were placed into an exposure chamber and exposed to LPS (7.0 mL, 0.5 mg/mL solution in PBS for 30 min). After a further 8 h the animals were anesthetized, their tracheas cannulated and BALF extracted by infusing and then withdrawing from their lungs 1.0 mL of PBS via the tracheal catheter. Total and differential white cell counts in the BALF samples were measured using a Neubaur haemocytometer. Cytospin smears of the BALF samples were prepared by centrifugation at 200 rpm for 5 min at RT and stained using a DiffQuik stain system (Dade Behring). Cells were counted using oil immersion microscopy. Data for neutrophil numbers in BAL are shown as mean±S.E.M. (standard error of the mean). The percentage inhibition of neutrophil accumulation was calculated for each treatment relative to vehicle treatment.

In a further experiment the target is T2, GSK 3α enzyme isoform (Homo sapiens, UniProt P49840).
T2 construct: purchased Life Technologies
T2 sequence (P49840 whole entry, canonical isoform): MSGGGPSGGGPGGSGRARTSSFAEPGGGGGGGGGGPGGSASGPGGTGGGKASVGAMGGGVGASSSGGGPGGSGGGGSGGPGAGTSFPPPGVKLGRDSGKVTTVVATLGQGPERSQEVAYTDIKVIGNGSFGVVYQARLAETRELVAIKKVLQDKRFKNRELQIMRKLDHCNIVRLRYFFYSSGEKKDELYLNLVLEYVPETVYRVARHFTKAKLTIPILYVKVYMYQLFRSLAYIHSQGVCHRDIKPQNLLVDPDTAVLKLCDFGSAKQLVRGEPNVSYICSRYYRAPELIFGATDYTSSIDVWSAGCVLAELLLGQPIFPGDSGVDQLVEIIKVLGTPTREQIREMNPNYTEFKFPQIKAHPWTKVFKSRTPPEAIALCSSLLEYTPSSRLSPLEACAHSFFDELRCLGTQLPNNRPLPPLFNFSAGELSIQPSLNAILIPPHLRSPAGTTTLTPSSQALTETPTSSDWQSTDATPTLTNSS
As to the kind of experiment: GSK 3α enzyme inhibition (Z-LYTE FRET). It counts as biochemical. The gist of the method:
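Z-LYTE FRET kinase assay: GSK3α protein (500 ng/mL stock) preincubated with compound (0.0012–40 μg/mL stocks) for 2 h at RT. FRET peptide (8 μM stock) and ATP (40 μM stock) added for 1 h at RT, then protease development for 1 h. Phosphorylation taken from the coumarin/fluorescein emission ratio.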

T1 sequence (Q16539 whole entry, canonical isoform): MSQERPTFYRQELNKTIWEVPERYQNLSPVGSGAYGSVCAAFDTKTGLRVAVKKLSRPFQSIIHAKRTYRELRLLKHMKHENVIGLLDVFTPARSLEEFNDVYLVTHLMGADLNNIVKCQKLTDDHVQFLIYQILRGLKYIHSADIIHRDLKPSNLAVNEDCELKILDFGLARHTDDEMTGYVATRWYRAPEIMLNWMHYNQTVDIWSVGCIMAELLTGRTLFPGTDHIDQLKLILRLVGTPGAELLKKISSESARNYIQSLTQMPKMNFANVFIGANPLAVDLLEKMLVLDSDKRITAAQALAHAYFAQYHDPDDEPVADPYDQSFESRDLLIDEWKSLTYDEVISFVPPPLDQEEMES

With `Cc1ccc(-n2nc(C(C)(C)C)cc2NC(=O)Nc2ccc(OCc3ccnc(Nc4cnccn4)c3)c3ccccc23)cc1` [Example 1, 1-(3-(tert-Butyl)-1-(p-tolyl)-1H-pyrazol-5-yl)-3-(4-((2-(pyrazin-2-ylamino)pyridin-4-yl)methoxy)naphthalen-1-yl)urea], the IC50 in experiment [1] is 25 nM; in experiment [3], 13 nM; on GSK 3α enzyme isoform (Table 2A, read-out: IC50 Values for Enzyme Inhibition GSK3α), > 16700 nM. Besides, the EC50 in experiment [2] is 1.6 nM. For the same compound, the “CXCL1 in BALF” value came out at 14.47 pg/mL in the experiment with CXCL1 (KC) in BALF (0.07 μg/mouse), 12.49 pg/mL with CXCL1 (KC) in BALF (0.7 μg/mouse) and 9.03 pg/mL in the experiment with CXCL1 (KC) in BALF (7 μg/mouse). The “CXCL1 in BALF, % inhibition” value with CXCL1 (KC) in BALF (0.07 μg/mouse) was 14.6%; in the experiment on CXCL1 (KC) in BALF (0.7 μg/mouse) it was 34.9%; in the experiment on CXCL1 (KC) in BALF (7 μg/mouse), 70.3%. For the same compound, the “tobacco smoke induced CXCL1 (KC) production in BALF (in words)” value in the experiment on CXCL1 (KC) in BALF was “inhibited”. In addition, the “Neutrophil numbers in BALF” value turned out to be 492000 mL⁻¹ in experiment [4] (pre-dose time 2 hr) and 759000 mL⁻¹ in experiment [4] (pre-dose time 8 hr). Further, the “Neutrophil numbers in BALF, % inhibition” value in experiment [4] (pre-dose time 2 hr) is given as 67.8%; in experiment [4] (pre-dose time 8 hr) it was 50.3%. Besides, in experiment [4], the “LPS-induced neutrophil accumulation (in words)” value was “inhibition”. The “duration of action (time course experiment)” value in experiment [4] was “long duration of action”. For the same compound, the “inhibitory activity against GSK3a (in words)” value on GSK 3α enzyme isoform is listed as “very much weaker than the Reference Compound”.
